Test results reported in US9227971B2, “Pyrazolo[1,5-a]pyrimidine compounds as mTOR inhibitors” (Merck Sharp & Dohme Corp., priority 2010, dated 2016).
Where two headings read alike, the source gives them in different places.

Legend:
[1] = system: phosphorylated AKT Ser473 (pAKT S473), mTORC2 activity, PC3 cells; assay: mTOR target engagement assay, immunofluorescent cell-based, pAKT S473 readout (mTORC2 activity); conditions: Homo sapiens
Summary of the method: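 After blocking, cells were stained overnight at 4 °C with anti-pAKT S473 antibody, then a fluorescent secondary; inhibition was read as reduced fluorescence intensity.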

[2] = system: phosphorylated 4E-BP1 Thr37/46 (p4E-BP1 Thr37/46), mTORC1 activity, PC3 cells; assay: mTOR target engagement assay, immunofluorescent cell-based, p4E-BP1 Thr37/46 readout (mTORC1 activity); conditions: Homo sapiens, read-out: p4E-BP1 Thr37/46 IC50
Summary of the method: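 Cell-based immunofluorescence in PC3 cells: serially diluted compounds (0.25% DMSO, 5% FBS) applied for ninety minutes at 37° C before fixation and overnight 4° C staining of p4E-BP1 Thr37/46. Untreated DMSO wells set maximal phosphorylation; IC50 obtained by logistic fitting.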

[3] = PC-3, PC3 cells, compound treatment ninety minutes at 37° C.

Row | SMILES | IC50 [1, 3] [nM] | IC50 [2, 3] [nM] | also measured
1 | C[C@@H](O)C(=O)N1[C@@H]2CC[C@H]1C[C@H](c1nc3c(-c4ccc(-c5ccccc5)nc4)cnn3c(N)c1S(C)(=O)=O)C2 [Compound 3.28, (R)-1-((1R,3S,5S)-3-(7-amino-6-(methylsulfonyl)-3-(6-phenylpyridin-3-yl)pyrazolo[1,5-a]pyrimidin-5-yl)-8-azabicyclo[3.2.1]octan-8-yl)-2-hydroxypropan-1-one] | – | – | IC50 ([1]; PC-3, Table 3-1, PC3 cells): 100 to 1000 nM; IC50 ([2]; PC-3, Table 3-1, PC3 cells): 100 to 1000 nM
2 | CC(=O)c1c([C@@H]2C[C@H]3CC[C@@H](C2)N3C(=O)CO)nc2c(-c3cnc(C(C)(C)O)c(C)c3)cnn2c1N [Compound 7.23, 1-((1R,3s,5S)-3-(6-acetyl-7-amino-3-(6-(2-hydroxypropan-2-yl)-5-methylpyridin-3-yl)pyrazolo[1,5-a]pyrimidin-5-yl)-8-azabicyclo[3.2.1]octan-8-yl)-2-hydroxyethanone] | 100 to 1000 | 100 to 1000 | –
3 | CC(=O)c1c([C@@H]2C[C@H]3CC[C@@H](C2)N3C(=O)c2nnc[nH]2)nc2c(-c3ccc(-c4cccc(F)c4F)nc3)cnn2c1N [Compound 1.1.61, 1-(5-((1R,3s,5S)-8-(4H-1,2,4-triazole-3-carbonyl)-8-azabicyclo[3.2.l]octan-3-yl)-7-amino-3-(6-(2,3-difluorophenyl)pyridin-3-yl)pyrazolo[1,5-a]pyrimidin-6-yl)ethanone] | 1 to 100 | 1 to 100 | –
4 | CCCC(O)c1ccc(-c2cnn3c(N)c(S(C)(=O)=O)c([C@@H]4C[C@H]5CC[C@@H](C4)N5C(=O)c4nnc[nH]4)nc23)cn1 (stereo partly drawn) [Compound 7.25, ((1R,3s,5S)-3-(7-amino-3-(6-(1-hydroxybutyl)pyridin-3-yl)-6-(methylsulfonyl)pyrazolo[1,5-a]pyrimidin-5-yl)-8-azabicyclo[3.2.1]octan-8-yl)(4H-1,2,4-triazol-3-yl)methanone] | – | – | IC50 ([1]; PC-3, Table 7-2, PC3 cells): 1000 to 10000 nM; IC50 ([2]; PC-3, Table 7-2, PC3 cells): 1000 to 10000 nM
5 | Nc1n[nH]cc1C(=O)N1[C@@H]2CC[C@H]1C[C@H](c1nc3c(-c4ccc(-c5ccccc5)nc4)cnn3c(N)c1C1CC1)C2 [Compound 4.30, (3-amino-1H-pyrazol-4-yl)((1R,3s,5S)-3-(7-amino-6-cyclopropyl-3-(6-phenylpyridin-3-yl)pyrazolo[1,5-a]pyrimidin-5-yl)-8-azabicyclo[3.2.1]octan-8-yl)methanone] | 1 to 100 | 100 to 1000 | –
6 | Nc1c(C2CC2)c([C@@H]2C[C@H]3CC[C@@H](C2)N3C(=O)c2nnc[nH]2)nc2c(-c3ccc(C4(O)CCC4)nc3)cnn12 [Compound 7.43, ((1R,3s,5S)-3-(7-amino-6-cyclopropyl-3-(6-(1-hydroxycyclobutyl)pyridin-3-yl)pyrazolo[1,5-a]pyrimidin-5-yl)-8-azabicyclo[3.2.1]octan-8-yl)(4H-1,2,4-triazol-3-yl)methanone] | – | – | IC50 ([1]; PC-3, Table 7-8, PC3 cells): 100 to 1000 nM; IC50 ([2]; PC-3, Table 7-8, PC3 cells): 100 to 1000 nM
7 | CC(=O)c1c([C@@H]2C[C@H]3CC[C@@H](C2)N3C(=O)c2nnc(N)[nH]2)nc2c(-c3ccc(-c4ncc[nH]4)nc3)cnn2c1N [Compound 6.20, 1-(3-(6-(1H-imidazol-2-yl)pyridin-3-yl)-7-amino-5-((1R,3s,5S)-8-(5-amino-4H-1,2,4-triazole-3-carbonyl)-8-azabicyclo[3.2.1]octan-3-yl)pyrazolo[1,5-a]pyrimidin-6-yl)ethanone] | – | – | IC50 ([1]; PC-3, Table 6-1, PC3 cells): 1 to 100 nM; IC50 ([2]; PC-3, Table 6-1, PC3 cells): 1 to 100 nM
8 | COc1cc(F)cc2cc(-c3cnn4c(N)c(C(C)=O)c([C@@H]5C[C@H]6CC[C@@H](C5)N6C(=O)CO)nc34)cnc12 [Compound 1.1.183, 1-((1R,3r,5S)-3-(6-acetyl-7-amino-3-(6-fluoro-8-methoxyquinolin-3-yl)pyrazolo[1,5-a]pyrimidin-5-yl)-8-azabicyclo[3.2.1]octan-8-yl)-2-hydroxyethanone] | 1 to 100 | 100 to 1000 | –
9 | Cc1nnc(C(=O)N2[C@@H]3CC[C@H]2C[C@H](c2nc4c(-c5ccc(-c6ccccc6)nc5)cnn4c(N)c2C2CC2)C3)[nH]1 [Compound 4.2, ((1R,3a,5S)-3-(7-amino-6-cyclopropyl-3-(6-phenylpyridin-3-yl)pyrazolo[1,5-a]pyrimidin-5-yl)-8-azabicyclo[3.2.1]octan-8-yl)(5-methyl-4H-1,2,4-triazol-3-yl)methanone] | 1 to 100 | 1 to 100 | –
10 | CS(=O)(=O)c1c([C@@H]2C[C@H]3CC[C@@H](C2)N3C(N)=O)nc2c(-c3ccc(-c4ccccc4F)nc3)cnn2c1N [Compound 3.131, (1R,3s,5S)-3-(7-amino-3-(6-(2-fluorophenyl)pyridin-3-yl)-6-(methylsulfonyl)pyrazolo[1,5-a]pyrimidin-5-yl)-8-azabicyclo[3.2.1]octane-8-carboxamide] | – | – | IC50 ([1]; PC-3, Table 3-1, PC3 cells): 1 to 100 nM; IC50 ([2]; PC-3, Table 3-1, PC3 cells): 1 to 100 nM
11 | COc1cc(F)c(-c2ccc(-c3cnn4c(N)c(C5CC5)c([C@@H]5C[C@H]6CC[C@@H](C5)N6C(=O)c5nnc[nH]5)nc34)cn2)cc1F [Compound 4.12, ((1R,3a,5S)-3-(7-amino-6-cyclopropyl-3-(6-(2,5-difluoro-4-methoxyphenyl)pyridin-3-yl)pyrazolo[1,5-a]pyrimidin-5-yl)-8-azabicyclo[3.2.1]octan-8-yl)(4H-1,2,4-triazol-3-yl)methanone] | 1 to 100 | 1 to 100 | –
12 | COCCOc1ccc(-c2ccc(-c3cnn4c(N)c(C(C)=O)c([C@@H]5C[C@H]6CC[C@@H](C5)N6C(=O)c5nnc[nH]5)nc34)cn2)cc1 [Compound 1.1.69, 1-(5-((1R,3s,5S)-8-(4H-1,2,4-triazole-3-carbonyl)-8-azabicyclo[3.2.1]octan-3-yl)-7-amino-3-(6-(4-(2-methoxyethoxy)phenyl)pyridin-3-yl)pyrazolo[1,5-a]pyrimidin-6-yl)ethanone] | 100 to 1000 | 100 to 1000 | –
13 | CC(=O)c1c([C@@H]2C[C@H]3CC[C@@H](C2)N3C(=O)c2nnc[nH]2)nc2c(-c3ccc(-c4ccn(CF)n4)nc3)cnn2c1N [Compound 1.1.86, 1-(5-((1R,3s,5S)-8-(4H-1,2,4-triazole-3-carbonyl)-8-azabicyclo[3.2.1]octan-3-yl)-7-amino-3-(6-(1-(fluoromethyl)-1H-pyrazol-3-yl)pyridin-3-yl)pyrazolo[1,5-a]pyrimidin-6-yl)ethanone] | 1 to 100 | 1 to 100 | –
14 | CS(=O)(=O)c1c([C@@H]2C[C@H]3CC[C@@H](C2)N3C(=O)c2cc(CO)n[nH]2)nc2c(-c3ccc(-c4ccccc4)nc3)cnn2c1N [Compound 3.84, ((1R,3s,5S)-3-(7-amino-6-(methylsulfonyl)-3-(6-phenylpyridin-3-yl)pyrazolo[1,5-a]pyrimidin-5-yl)-8-azabicyclo[3.2.1]octan-8-yl)(3-(hydroxymethyl)-1H-pyrazol-5-yl)methanone] | – | – | IC50 ([1]; PC-3, Table 3-1, PC3 cells): 1 to 100 nM; IC50 ([2]; PC-3, Table 3-1, PC3 cells): 100 to 1000 nM
15 | CC(=O)c1c([C@@H]2C[C@H]3CC[C@@H](C2)N3C(=O)c2nnc[nH]2)nc2c(-c3ccc(CO)nc3)cnn2c1N [Compound 7.1, 1-(5-((1R,3s,5S)-8-(4H-1,2,4-triazole-3-carbonyl)-8-azabicyclo[3.2.1]octan-3-yl)-7-amino-3-(6-(hydroxymethyl)pyridin-3-yl)pyrazolo[1,5-a]pyrimidin-6-yl)ethanone] | 1 to 100 | 1 to 100 | –
16 | Cn1ccc(-c2ccc(-c3cnn4c(N)c(C5CC5)c([C@@H]5C[C@H]6CC[C@@H](C5)N6C(=O)c5nnc[nH]5)nc34)cn2)n1 [Compound 4.17, ((1R,3s,5S)-3-(7-amino-6-cyclopropyl-3-(6-(1-methyl-1H-pyrazol-3-yl)pyridin-3-yl)pyrazolo[1,5-a]pyrimidin-5-yl)-8-azabicyclo[3.2.1]octan-8-yl)(4H-1,2,4-triazol-3-yl)methanone] | 1 to 100 | 1 to 100 | –
